Here are results for 87 compounds from a melting point compilation (Tetko et al.; mined from patent text by program, amines drawn as free bases though some values may be those of a salt).

Usually melting point stands for the temperature of the solid-liquid transition.

As for `O=C(c1ccc(F)cc1)C1CCN(CCCn2c(=O)[nH]c(=O)c3ccccc32)CC1`, the melting point worked out at 193 °C.
As for `Nc1ccccc1Oc1ccc2c(c1)OCC(=O)N2`, the melting point was in the range of 149 to 150 °C.
As to `CC(=O)Oc1c(C)c(C)c2c(c1C)CCC(C)(COc1ccc(N)cc1)O2` (configuration not stated), the melting point fell in the range of 138 to 140 °C.
`CON=C(C1=NOCCO1)c1ccccc1COc1ccn(-c2ccc(Cl)cc2)n1` showed a melting point of 56 to 59 °C.
The same measure for `CCCc1cccnc1N(CC)C1CCN(C(=O)c2ccc[nH]2)CC1`: 115 to 116 °C; for `COC(=O)Cc1ccc(OCC2CN(c3ccc(C#N)cc3)C(=O)O2)cc1` (configuration not stated): 114 to 115 °C.
The same measure for `O=C1NC(=O)C(N2C(=O)c3ccccc3C2=O)CC1c1ccccc1` (configuration not stated): 228 to 231 °C; for `COc1cc(/C=C/C(=O)CC(=O)/C=C/c2ccc(O)cc2Cl)ccc1O`: 185 to 192 °C.
`Cc1cnc(SCc2cc3c(cc2O)CCCO3)n1C` yielded a melting point of 139 to 140 °C.
Regarding `COc1cc2nc(N(C)C)nc(N)c2cc1OC`, the melting point fell in the range of 223 to 224 °C.
The same measure for `O=c1[nH]nc2ccc(-c3ccccc3)nn12`: 255 to 257 °C; for `CCOC(=O)CCc1cc(C(=O)c2ccc(C(=O)OCC)cc2)ccc1O`: 70 to 71 °C; for `O=[N+]([O-])c1ccc(Oc2c(Cl)cc(S(=O)(=O)NC(=NO)Nc3ccc(Cl)cc3)cc2Cl)cc1`: 212 °C.
On to `C=CCC(CO)(NC)c1ccc(Cl)c(Cl)c1` (configuration not stated), for which the melting point is 78 to 78.5 °C.
In the case of `C1CCc2c(c(N3CCCC3)nn3nnnc23)C1`, the melting point lay within 272 to 273 °C.
The same measure for `FC(F)(F)Oc1ccc2nc(Cc3ccc4c(c3)CCCC4)[nH]c2c1`: 88 to 90 °C; for `CCC1c2ccccc2-c2sccc2N1S(=O)(=O)c1ccc(O)cc1` (configuration not stated): 169 to 171 °C.
In turn, `COC(=O)c1cc([N+](=O)[O-])ccc1F` registered a melting point of 52 to 53 °C.
Compound `COC(=O)CCC(C)(C)c1ccc(OC)c(NC(=O)C[C@H]2O[C@H](c3cccc(OC)c3OC)c3cc(Cl)ccc3N(CC(C)(C)COC(C)=O)C2=O)c1` gave a melting point of 157 to 158 °C.
In the case of `FC(F)Oc1ccc(-c2nnc(Nc3ccc(Cl)c(Cl)c3)s2)cc1`, the melting point lay in the range of 265 to 266 °C.
As to `COc1ccc(CNc2ncnc3c2ncn3C2OC(CO)C(O)C2O)cc1` (configuration not stated), the melting point was 148 °C.
In turn, `CCCCc1nn2cc(-c3ccccc3)nc2n1Cc1ccc(-c2ccccc2-c2nnn[nH]2)cc1` registered a melting point of over 160 °C.
Compound `CN(C)C(=O)CON(Cc1ccc(F)cc1)C(=O)C1=C(O)C(=O)N(C)C1` came in with a melting point of 147 to 149 °C.
In turn, `C=CCOC(=O)N=C(OCC)N1Cc2ccccc2-c2ccccc2C1` gave a melting point of 76 to 77.5 °C.
With `COc1ccc2c(c1)CCN(C=O)C2c1cc(Cl)nc(Cl)c1` (single isomer, unassigned; (-)) the figure was 156 to 158 °C.
The same measure for `O=C(O)CCNC(=O)C(Cl)(Cl)Cl`: 102 to 110 °C; for `NCCc1ccc(N2CCN(c3ccc(CC(=O)O)cc3)C2=O)cc1`: over 250 °C.
As to `C#CCN(C(=O)OC(C)(C)C)c1cn(-c2cncc(F)c2)nc1C`, the melting point is 81 to 82 °C.
With `C[C@@H](N(CC(=O)O)C(=O)c1ccc(OCC(F)(F)C(F)F)cc1)[C@](O)(Cn1cncn1)c1ccc(Cl)cc1Cl` (relative stereo) the figure was 192 to 193 °C; with `Clc1ccc(C2(Cn3cncn3)OCCO2)c(Cl)c1Cl`, 181 °C; with `O=C(O)C(O)(c1ccccc1)c1ccc(Br)cc1` (racemic), 125 to 126 °C.
Compound `CCCCCCCCCCCCCCCCSCC(CNS(=O)(=O)CCCCl)NC(=O)OC` (configuration not stated) showed a melting point of 67 to 69 °C.
Compound `COc1ccc2c(c1)nc(C)n2-c1ccccc1` displayed a melting point of 88 to 90 °C.
Regarding `O=c1[nH]c2cc(F)c(NCC3CCc4ccccc4C3)cc2o1` (configuration not stated), the melting point was 177 to 178 °C.
Compound `Cn1c([N+](=O)[O-])cnc1-c1nc2ccccc2n1CCN1CCOCC1` came in with a melting point of 237 °C.
In the case of `OC(CCN1CC=C(c2ccc(Cl)cc2)CC1)c1ccc(Cc2ccccn2)cc1` (configuration not stated), the melting point was 129 to 131 °C.
On to `O=C(c1ccc(Nc2ccnc3cc(C(F)(F)F)ccc23)cc1)N1CCC(Sc2ccc(F)cc2)CC1`, for which the melting point lay in the range of 211 to 214 °C.
As for `COc1cc2c(cc1OC)CN(CCCc1ccc(NC(=O)c3nc4cc(C)c(C)cc4nc3OC)cc1)CC2`, the melting point lay within 164 to 166 °C.
Regarding `O=c1[nH]ncc2c1c(O)nc1ccccc12`, the melting point is over 350 °C.
In turn, `CN1Cc2c(-c3nc(CCl)cs3)ncn2-c2ccc(F)cc2C1=O` came in with a melting point of 239 to 241 °C.
The same measure for `NCCc1ccc(C(N)=O)s1`: 134 to 136 °C; for `CCc1cccc(CC)c1NC(=O)NCC1(c2ccccc2)CCCC1`: 165 to 167 °C.
For `CC(C)(C)OC(=O)CN(C(=O)CN(C(=O)CN1C(=O)c2ccccc2C1=O)c1ccccc1)c1ccccc1`, the melting point is 80 °C.
Compound `COc1ccc(C=O)c(OC)c1Br` yielded a melting point of 80 °C.
As for `COc1ccc(C(=[N+]=[N-])c2ccc(OC)cc2)cc1`, the melting point came to 85 °C.
Compound `Nc1cc(Br)cnc1CCCCNc1nccc(=O)[nH]1` gave a melting point of 130 to 135 °C.
The same measure for `COC(=O)c1cncn1C1c2ccccc2C(F)(F)C1(C)C` (configuration not stated): 96 to 97 °C.
Turning to `CC(C)c1sc(C#N)c2c1C(=O)CC(C)(C)C2`, the melting point lay in the range of 59 to 60 °C.
The compound `CCCc1nc2c(N)nc3ccccc3c2n1CCCCN(OC)S(C)(=O)=O` had a melting point of 178 to 188 °C.
With `O=C(c1ccccc1)c1ccccc1C#CCN1C(=O)c2ccccc2C1=O` the figure was 164 to 165 °C; with `OCc1cnoc1-c1ccc2c(c1)OCO2`, 92 to 93 °C.
Consider `Cc1noc(-c2ncn3c2[C@@H]2CCCN2C(=O)c2cc(F)ccc2-3)n1`, for which the melting point lay within 248 to 249 °C.
Consider `CCCN(CCN1CCN(C(=O)c2cc3ccccc3[nH]2)CC1)C1CCc2c(O)cccc2C1` (configuration not stated), for which the melting point was 169 to 170 °C.
In turn, `CCNC(=O)Cc1ccc2ccn(C3CCN(CCc4ccc(F)cc4)CC3)c2c1` gave a melting point of 160 °C.
The same measure for `COC(=O)c1c([N+](=O)[O-])cccc1S(=O)(=O)N(C)CCO`: 98 to 101 °C; for `CSC(=S)N1CCN(Cc2cc(OC(C)=O)c(OC(C)=O)c(OC(C)=O)c2)CC1`: 141 to 143 °C; for `CC(C)(C)OC(=O)n1c(-c2ccc3c(c2)C(C)(C)OC(=O)N3)ccc1[N+](=O)[O-]`: 125 °C.
The compound `C=CCOc1c(OC)cc([C@H]2CC[C@H](c3cc(OC)c(OC)c(OC)c3)O2)cc1S(C)(=O)=O` (relative stereo) gave a melting point of 97 to 98 °C.
With `Clc1ccc2c(N3CCNCC3)n[nH]c2c1` the figure was 135 to 137 °C; with `O=C(c1ccc(SCCO)c([N+](=O)[O-])c1)c1ccc(SCCO)c([N+](=O)[O-])c1`, 193 to 197 °C; with `CC(=Cc1c(Cl)cccc1Cl)[N+](=O)[O-]`, 49 to 50 °C.
`CCOC(=O)/C=C/c1ccc(-c2ccc(O)c(C34CC5CC(CC(C5)C3)C4)c2)c(Cl)c1` displayed a melting point of 216 to 218 °C.
As for `CCOC(=O)c1c(N2CCCCC2)c(C#N)c(=O)n2ccccc12`, the melting point is 143 to 144 °C.
`Cc1ccc(NC(=O)Nc2cccc(C(F)(F)F)c2)cc1/C=C/n1cnc2c(NC3CC3)ncnc21` returned a melting point of 160 to 162 °C.
The same measure for `COC(=O)c1ccc(CCNCC(O)c2cc3ccccc3o2)cc1` (configuration not stated): 117 to 119 °C; for `COc1ccc(/C=C(\C#N)c2ccccc2N)cc1OC1CCCC1`: 81 to 82.5 °C.
Consider `CC(=O)OCC1OC(N)C(OC(C)=O)C(OC(C)=O)C1OC(C)=O` (configuration not stated), for which the melting point lay in the range of 145 to 147 °C.
The same measure for `CCOC(=O)c1cn(C(C)(C)C)c2nc(SCC)c(F)cc2c1=O`: 159 to 160 °C; for `CC(C)(CO)c1ccc(Br)cc1`: 46.5 to 48 °C; for `CCOC(=O)C(=NOCc1ccc(OCc2nc(-c3ccccc3)oc2C)cc1)c1ccc(Br)cc1`: 105 to 106 °C.
With `CN(C(CCn1c(=O)cc(C(F)(F)F)[nH]c1=O)C(=O)NO)S(=O)(=O)c1ccc(Oc2ccc(Cl)cc2)cc1` (configuration not stated), the melting point was in the range of 173 to 174 °C.
In turn, `Cc1cc(OCCNC(=O)C2Cc3ccccc3N2S(=O)(=O)c2ccc(-c3cc(C(F)(F)F)ccc3Cl)cc2)ccc1CC(=O)O` (configuration not stated) gave a melting point of 110 to 115 °C.
As to `CN1Cc2c(C#CI)ncn2-c2cccc(Cl)c2C1=O`, the melting point was in the range of 215 to 216 °C.
The compound `Cc1cc(Cc2cnc(NCCSCc3cc(CN(C)C)ccn3)[nH]c2=O)cnc1C` showed a melting point of 72 to 78 °C.
Compound `CC(=O)N1CCc2cc(O)c(C(F)(F)F)cc21` came in with a melting point of 244 to 247 °C.
With `CCOC(=O)C=C1CN(C)C(=O)c2ccccc2N1` the figure was 154 to 155 °C; with `CS(=O)(=O)CCCCC(c1cc(Cl)ccc1F)S(=O)(=O)c1ccc(Cl)cc1` (configuration not stated), 116 to 117 °C; with `CC(C)c1cc(CN2C(=O)C3(COc4cc5c(cc43)OCO5)c3ccccc32)on1` (configuration not stated), 132 to 136 °C.
With `CCOC(=O)c1c(C)nn(C)c1S(=O)(=O)N=c1nc2nc(C)cc(C)n2s1` the figure was 167 to 168 °C.
With `CSC(=NC(=O)N(C)C)N(C)C(=O)Nc1ccccc1` the figure was 74 to 77 °C; with `CN(C)C1(c2ccccc2Cl)C(=O)N(Cc2ccc([N+](=O)[O-])cc2)c2ccc(Cl)cc21` (configuration not stated), 189 to 193 °C; with `COC(=O)c1nc(OC(C)=O)cc2c1[nH]c1ccccc12`, 151 to 152 °C.
In turn, `CCOC(=O)/C=C/c1ccc(-c2ccc(O)c(C34CC5CC(CC(C5)C3)C4)c2)c(C)c1` displayed a melting point of 193 to 195 °C.
In the case of `C=C(C(=O)O)c1ccc2c(c1)Cc1ccccc1-2`, the melting point is 183 to 185 °C.
As for `COC(=O)c1ccc2c(c1)N(C1CC1)C=NS2(=O)=O`, the melting point fell in the range of 191 to 194 °C.
As for `COc1c2ccccc2nc2c1c(C)nn2-c1ccccn1`, the melting point was 44 to 47 °C.
With `COC(=O)C(=C(C)O)N1C(=O)C(N2C(=O)c3ccccc3C2=O)C1SC(C)=O` (configuration not stated) the figure was 178 to 183 °C.
